Laboratory results taken from PubChem BioAssay (NCI).
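Assay format: 96-well plates, 48-hour exposure. GI50 = concentration required for 50% inhibition of growth. The concentration for full growth arrest is given as TGI.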

Experiments:
Assay in all cases: NCI tumour cell line growth inhibition, 48 h
RPMI-8226 leukemia = test system: RPMI-8226 leukemia
NCI-H460 lung = test system: NCI-H460 lung
SR leukemia = test system: SR leukemia
COLO 205 colon = test system: COLO 205 colon
OVCAR-3 ovarian = test system: OVCAR-3 ovarian
KM12 colon = test system: KM12 colon
HL-60(TB) leukemia = test system: HL-60(TB) leukemia
HCT-116 colon = test system: HCT-116 colon
HOP-92 NSCLC = test system: HOP-92 NSCLC
HOP-62 NSCLC = test system: HOP-62 NSCLC

Row | Compound | GI50 (RPMI-8226 leukemia) [µM] | TGI (RPMI-8226 leukemia) [µM] | GI50 (NCI-H460 lung) [µM] | TGI (NCI-H460 lung) [µM] | GI50 (SR leukemia) [µM] | TGI (SR leukemia) [µM] | GI50 (COLO 205 colon) [µM] | TGI (COLO 205 colon) [µM] | GI50 (OVCAR-3 ovarian) [µM] | TGI (OVCAR-3 ovarian) [µM] | GI50 (KM12 colon) [µM] | TGI (KM12 colon) [µM] | GI50 (HL-60(TB) leukemia) [µM] | TGI (HL-60(TB) leukemia) [µM] | GI50 (HCT-116 colon) [µM] | TGI (HCT-116 colon) [µM] | GI50 (HOP-92 NSCLC) [µM] | TGI (HOP-92 NSCLC) [µM] | GI50 (HOP-62 NSCLC) [µM] | TGI (HOP-62 NSCLC) [µM]
1 | Cc1nn(-c2nc3ccccc3[nH]2)c2c1C(c1ccc3c(c1)OCO3)CC(=O)N2 (stereo unspecified) | 2.22 | 5.02 | 2.36 | 5.55 | 2.82 | > 24.9 | 2.11 | 4.15 | 2.38 | 5.17 | 2.33 | 5.45 | 2.84 | 7.74 | 2.24 | 4.73 | 2.66 | 7.14 | 2.38 | 5.21
2 | O=C(N/N=C\c1ccc(N(CCCl)CCCl)cc1Cl)c1cccnc1 | 12.2 | 41.4 | 0.192 | 12.7 | 7.23 | 69.6 | 8.5 | 38.1 | 3.37 | 14.3 | 19.4 | 64.3 | 7.5 | 36.5 | 3.23 | 36.6 | 15.1 | 69.1 | 13.6 | > 78
3 | CSC1C(=O)c2ccccc2/C(=N/Nc2nc3ccccc3s2)C1C (stereo unspecified) | 7.44 | > 50 | 11 | 25.7 | 0.843 | 2.52 | 9.63 | 21.1 | 7.98 | 17.6 | 18.7 | > 50 | 2.14 | 43 | 4.67 | 28.8 | 7.93 | 25.2 | 14.4 | > 50
4 | S=C(Nc1ccccc1)N(Cc1ccccc1)c1ccccc1 | – | > 100 | – | > 100 | – | > 100 | – | 51.8 | – | > 100 | – | 69.6 | – | > 100 | – | > 100 | – | > 100 | – | > 100
5 | C[CH2][Sn]([CH2]C)([O]C(=O)c1cccc(F)c1)[O][Sn]([CH2]C)([CH2]C)[O]C(=O)c1cccc(F)c1 | – | – | 33.8 | > 100 | 28 | > 100 | 18.3 | 32.2 | 78.8 | > 100 | > 100 | > 100 | 26.6 | 96.5 | 17.8 | 32.5 | 16.5 | 30.1 | 37.3 | > 100
6 | COc1ccc2c(c1)OC(N)=C(C#N)C2c1ccc(F)cc1 (stereo unspecified) | 2.43 | 19.9 | 2.05 | > 100 | 0.51 | > 100 | 1.74 | 10.1 | 0.829 | 14.2 | 0.656 | 25.8 | 0.45 | 7.15 | 1.09 | 26 | 8.52 | 75.5 | 0.986 | > 100
7 | O=C(CN1C(=O)c2ccccc2C1=O)C(O)CN1C(=O)c2ccccc2C1=O (stereo unspecified) | – | > 100 | – | > 100 | – | > 100 | – | > 100 | – | > 100 | – | > 100 | – | > 100 | – | > 100 | – | > 100 | – | 41.9
8 | COc1cc(/C=C2/C(=O)NC(Cc3cc(OC)c(OC)c(C)c3OC)C(=O)N2Cc2ccccc2)c(OC)c(C)c1OC (stereo unspecified) | – | 91.4 | – | > 100 | – | 54.1 | – | 35 | – | > 100 | – | > 100 | – | 53.3 | – | > 100 | – | 71.9 | – | > 100
9 | O=C(N/C(=C\c1ccc(Oc2ccc(Cl)c(Cl)c2)cc1)c1nc2ccccc2[nH]1)c1ccccc1 | – | – | – | – | – | 85 | – | 58 | – | 41 | – | 30.4 | – | – | – | – | – | 23.5 | – | –
10 | Clc1nc(Cl)c(Cc2ccccc2)c(Cl)n1 | – | > 100 | – | – | – | > 100 | – | 22.6 | – | 9.16 | – | 66.3 | – | > 100 | – | 4.73 | – | – | – | 20.4
11 | CC(C)(c1ccc(OC#N)cc1)c1ccc(OC#N)cc1 | – | > 72.5 | – | > 82.4 | – | 50.5 | – | > 67.7 | – | > 100 | – | > 100 | – | > 77.7 | – | > 61 | – | > 100 | – | > 100
12 | C=C1CC[C@@H]2[C@](C)(COC(C)=O)[C@H](OC(C)=O)CC[C@@]2(C)[C@@H]1C/C=C1/C(=O)OC[C@H]1OC(C)=O | 2.06 | 7.68 | 18.6 | 37.7 | 2.59 | 10.1 | 3.37 | 11.4 | 2.17 | 4.21 | 10.5 | 27.7 | 2.61 | 6.78 | 1.45 | 2.98 | 13.2 | 26.4 | 4.4 | 21.4
13 | CN(C)CCNC(=O)c1cc2c3ccccc3[nH]c2c2ncccc12 | 6.01 | 22.7 | 4.17 | 18.4 | 3.34 | 13.2 | 2.95 | 16.5 | 0.0254 | 16.8 | 12.8 | 77.4 | 10.2 | 30 | 3.95 | 25.3 | 8.01 | 40.6 | 11.1 | 37.5
14 | C=CCCCCCC(O)C(O)C/C=C\C/C=C\CC (stereo unspecified) | – | > 18.8 | – | > 18.8 | – | > 18.8 | – | > 18.8 | – | > 18.8 | – | > 18.8 | – | > 18.8 | – | > 18.8 | – | > 18.8 | – | > 18.8
15 | O=C(/C=C/c1ccc(C(F)(F)F)cc1)c1ccc(Nc2nc(NCCO)nc(N3CCOCC3)n2)cc1 | 2.07 | 5.71 | 2.15 | 4.44 | 3.1 | > 100 | 2.09 | 4.08 | 1.96 | 3.79 | 1.8 | 3.3 | 2.92 | 8.64 | 1.43 | 2.74 | 2.48 | 9.2 | 2.22 | 6.57
